Several values for one entry are separate records, joined by “and”; a condition that tells them apart may be missing. Equal entries are not always repeated. Where two headings read alike, the source gives them in different places.
Key:
P. berghei blood stages = conditions: Pb-infected mice, single oral 50 mg/kg dose 1 day PI, compared to untreated animals
P. berghei liver stages [1] = assay type: in vivo, Plasmodium berghei; conditions: liver stage model, mice
Plasmodium cynomolgi = conditions: rhesus monkeys; cited from earlier work
P. berghei liver stages [2] = conditions: read-out: liver stage activity; cited from earlier work
P. falciparum TM90-C2B = conditions: RI = EC50(TM90-C2B)/EC50(W2); cited from earlier work
[3] = single dose 50 mg/kg subcutaneous

For `COC(=O)c1c[nH]c2cc(CN3CCN(c4ccc(C(F)(F)F)cc4)CC3)c(OC)cc2c1=O` [8ab, Methyl 6-Methoxy-4-oxo-7-((4-(4-(trifluoromethyl)phenyl)-piperazin-1-yl)methyl)-1,4-dihydroquinoline-3-carboxylate], the “% inhibition day 6 PI” value (P. berghei blood stages) was “completely inhibited parasite growth”.

With `Cc1[nH]c2cc(CN3CCN(c4ccc(F)cc4)CC3)ccc2c(=O)c1Br` [8an, 3-Bromo-7-((4-(4-Fluorophenyl)piperazin-1-yl)methyl)-2-methylquinolin-4(1H)-one] the “% inhibition day 6 PI” value (P. berghei blood stages) was “completely inhibited parasite growth”.

For `COC(=O)c1c[nH]c2cc(CN3CCN(c4ccccc4)CC3)ccc2c1=O` [8j, Methyl 4-Oxo-7-((4-phenylpiperazin-1-yl)methyl)-1,4-dihydroquinoline-3-carboxylate], the no. of cures (P. berghei liver stages [1]; single dose 25 mg/kg oral) was 2/5, the no. of cures (P. berghei liver stages [1]; single dose 50 mg/kg oral) was 2/5 and the no. of cures (P. berghei liver stages [1]; [3]) was 3/5. The no. of cures (P. berghei liver stages [1]; single dose 100 mg/kg oral) was 5/5.

For `COC(=O)c1c[nH]c2cc(CN3CCN(Cc4ccc(OC)cc4)CC3)ccc2c1=O` [8l, Methyl 7-((4-(4-Methoxybenzyl)piperazin-1-yl)methyl)-4-oxo-1,4-dihydroquinoline-3-carboxylate], the no. of cures (P. berghei liver stages [1]; single dose 25 mg/kg oral) was 0/5, the no. of cures (P. berghei liver stages [1]; single dose 50 mg/kg oral) was 0/5 and the no. of cures (P. berghei liver stages [1]; [3]) was 0/5. For the same compound, the no. of cures (P. berghei liver stages [1]; single dose 100 mg/kg oral, 100 mg/kg) was “one of five and 1/5”.

With `COC(=O)c1c[nH]c2cc(CN3CCN(c4ccc(C(F)(F)F)cc4)CC3)ccc2c1=O` [8p, Methyl 4-Oxo-7-((4-(4-(trifluoromethyl)phenyl)piperazin-1-yl)-methyl)-1,4-dihydroquinoline-3-carboxylate] the “% inhibition day 6 PI” value (P. berghei blood stages) was “completely inhibited parasite growth”.

With `COC(=O)c1c[nH]c2cc(CN3CCN(c4ccc(C(F)(F)F)cc4)CC3)c(C)cc2c1=O` [8v, Methyl 6-Methyl-4-oxo-7-((4-(4-(trifluoromethyl)phenyl)-piperazin-1-yl)methyl)-1,4-dihydroquinoline-3-carboxylate] the “% inhibition day 6 PI” value (P. berghei blood stages) was “completely inhibited parasite growth”.

For `CCCCc1cc2c(=O)c(C(=O)OCC)c[nH]c2cc1OCCOc1ccccc1` [compound 1], the “radical cure (eradication of dormant exoerythrocytic stages)” value (Plasmodium cynomolgi) is listed as “radical cures”.

In the case of `CCCCc1cc2c(=O)c(Br)c(C)[nH]c2cc1OCCOc1ccccc1` [compound 2, 3-bromo-6-butyl-2-methyl-7-(2-phenoxyethoxy)quinolin-4(1H)-one], the EC50 (P. berghei liver stages [2]) is listed as 2.12 nM and the “resistance index (RI)” value (P. falciparum TM90-C2B) is listed as 4.7.
